SMILES strings stand for the structures. A value given as a limit tells only on which side of the number the result lay.

Sequence of human recombinant H-PGDS (O60760 whole entry): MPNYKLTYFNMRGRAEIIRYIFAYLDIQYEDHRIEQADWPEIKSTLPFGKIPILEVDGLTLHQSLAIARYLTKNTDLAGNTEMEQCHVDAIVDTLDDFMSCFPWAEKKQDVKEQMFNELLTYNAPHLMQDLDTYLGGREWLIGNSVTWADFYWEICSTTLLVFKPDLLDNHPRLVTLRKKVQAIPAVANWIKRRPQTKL

In this test the target is human recombinant H-PGDS (Homo sapiens, UniProt O60760). The test can be described thus: Fluorescence Intensity h-PGDS TBA Enzyme Assay. Type of test: biochemical. As to conditions: 1:175,000 human recombinant H-PGDS, highest inhibitor concentration typically 1 μM. Summed up:
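Recombinant human H-PGDS preincubated 10 min at room temperature with inhibitor in 100 mM Tris pH 8.0, 100 μM MgCl2, 2.5 mM glutathione, 0.5% DMSO; 5.0 μM PGH2 added, stopped after 42 s with FeCl2/citric acid. Remaining PGH2 measured as MDA–TBA fluorescence (ex 530/em 565 nm); IC50 by 4-parameter fit, 11 concentrations.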
For the molecule `CC(=O)N1CCC(CNC(=O)c2ccc(-c3ccc(F)cc3)nc2)CC1` [Example 257, N-[(1-Acetylpiperidin-4-yl)methyl]-6-(4-fluorophenyl)nicotinamide], the IC50 stood at 777 nM.

On to `CCOC(=O)CC(NC(=O)c1ccc(-c2ccc(F)cc2)nc1)c1ccccc1` (stereo not drawn) [Example 258, Ethyl 3-({[6-(4-fluorophenyl)pyridin-3-yl]carbonyl}amino)-3-phenylpropanoate], for which the IC50 came out at 715 nM.

Consider `Cc1ccc(CN2CCC(NC(=O)c3ccc(-c4ccc(F)cc4)nc3)C2=O)cc1` (stereo not drawn) [Example 259, 6-(4-Fluorophenyl)-N-[1-(4-methylbenzyl)-2-oxopyrrolidin-3-yl]nicotinamide], for which the IC50 is 280 nM.

`CCOC(=O)C(CNC(=O)c1ccc(-c2ccc(F)cc2)nc1)C1CCCC1` (stereo not drawn) [Example 260, Ethyl 2-cyclopentyl-3-({[6-(4-fluorophenyl)pyridin-3-yl]carbonyl}amino)propanoate]: the IC50 came to 316 nM.

Turning to `O=C(NCCCNc1ccccn1)c1ccc(-c2ccc(F)cc2)nc1` [Example 261, 6-(4-Fluorophenyl)-N-[3-(pyridin-2-ylamino)propyl]nicotinamide], the IC50 was determined as 91.8 nM.

Regarding `CC(O)CNC(=O)c1ccc(-c2ccc(F)cc2)nc1` (stereo not drawn) [Example 262, 6-(4-Fluorophenyl)-N-(2-hydroxypropyl)nicotinamide], the IC50 was found to be 992 nM.

`COC(=O)CNC(=O)[C@H](C)NC(=O)c1ccc(-c2ccc(F)cc2)nc1` [Example 263, Methyl N-{[6-(4-fluorophenyl)pyridin-3-yl]carbonyl}-L-alanylglycinate]: the IC50 came out at 825 nM.

With `O=C(NCCc1ccncc1)c1ccc(-c2ccc(F)cc2)nc1` [Example 264, 6-(4-Fluorophenyl)-N-(2-pyridin-4-ylethyl)nicotinamide], the IC50 turned out to be 238 nM.

For the molecule `CC(NC(=O)c1ccc(-c2ccc(F)cc2)nc1)c1ccccc1` (stereo not drawn) [Example 265, 6-(4-Fluorophenyl)-N-(1-phenylethyl)nicotinamide], the IC50 amounted to 152 nM.

For the molecule `CN(C)CC(C)(C)CNC(=O)c1ccc(-c2ccc(F)cc2)nc1` [Example 266, N-[3-(Dimethylamino)-2,2-dimethylpropyl]-6-(4-fluorophenyl)nicotinamide], the IC50 was no less than 1000 nM.

On to `O=C(NCc1ccc(C(F)(F)F)cc1)c1ccc(-c2ccc(F)cc2)nc1` [Example 267, 6-(4-Fluorophenyl)-N-[4-(trifluoromethyl)benzyl] nicotinamide], for which the IC50 is no less than 1000 nM.

For the molecule `COC(=O)c1ccc(CNC(=O)c2ccc(-c3ccc(F)cc3)nc2)cc1` [Example 268, Methyl 4-[({[6-(4-fluorophenyl)pyridin-3-yl]carbonyl}amino)methyl benzoate], the IC50 came to 286 nM.

On to `NC(CC(=O)NC(=O)c1ccc(-c2ccc(F)cc2)nc1)C1CC1` (stereo not drawn) [Example 269, N-(3-Amino-3-cyclopropylpropanoyl)-6-(4-fluorophenyl)nicotinamide], for which the half-maximal inhibitory concentration (IC50) was found to be 672 nM.

Consider `O=C(NCCC1CCCCO1)c1ccc(-c2ccc(F)cc2)nc1` (stereo not drawn) [Example 270, 6-(4-Fluorophenyl)-N-[2-(tetrahydro-2H-pyran-2-yl)ethyl]nicotinamide], for which the IC50 amounted to 216 nM.

For `COc1cccc(-c2ccc(C(=O)NCCN3CCCCC3=O)cn2)c1` [Example 271, 6-(3-Methoxyphenyl)-N-[2-(2-oxopiperidin-1-yl)ethyl]nicotinamide], the IC50 was 219 nM.

On to `CCOC(=O)CC(NC(=O)c1ccc(-c2cccc(OC)c2)nc1)c1ccccc1` (stereo not drawn) [Example 272, Ethyl 3-({[6-(3-methoxyphenyl)pyridin-3-yl]carbonyl}amino)-3-phenylpropanoate], for which the IC50 worked out at 474 nM.

For `COc1cccc(-c2ccc(C(=O)NCC3CCN(C(C)=O)CC3)cn2)c1` [Example 273, N-[(1-Acetylpiperidin-4-yl)methyl]-6-(3-methoxyphenyl)nicotinamide], the IC50 stood at 559 nM.

Turning to `COc1cccc(-c2ccc(C(=O)NC3CCN(Cc4ccc(C)cc4)C3=O)cn2)c1` (stereo not drawn) [Example 274, 6-(3-Methoxyphenyl)-N-[1-(4-methylbenzyl)-2-oxopyrrolidin-3-yl]nicotinamide], the IC50 was determined as 106 nM.

`COc1cccc(-c2ccc(C(=O)NCc3ccc(OC)c(OC)c3)cn2)c1` [Example 275, N-(3,4-Dimethoxybenzyl)-6-(3-methoxyphenyl)nicotinamide]: the IC50 is 179 nM.

As to `CCOC(=O)CC(NC(=O)c1ccc(-c2cccc(OC)c2)nc1)c1ccccc1Cl` (stereo not drawn) [Example 276, Ethyl 3-(2-chlorophenyl)-3-({[6-(3-methoxyphenyl)pyridin-3-yl]carbonyl}amino) propanoate], the IC50 was 252 nM.

Regarding `COc1cccc(-c2ccc(C(=O)NC(=O)CC(N)c3ccc(OC)c(OC)c3)cn2)c1` (stereo not drawn) [Example 277, N-[3-Amino-3-(3,4-dimethoxyphenyl)propanoyl]-6-(3-methoxyphenyl) nicotinamide], the IC50 amounted to 274 nM.

On to `COc1cccc(-c2ccc(C(=O)NCCc3nc(C)no3)cn2)c1` [Example 278, 6-(3-Methoxyphenyl)-N-[2-(3-methyl-1,2,4-oxadiazol-5-yl)ethyl]nicotinamide], for which the IC50 is 324 nM.

In the case of `COc1cccc(-c2ccc(C(=O)NCC(C)(C)N3CCOCC3)cn2)c1` [Example 279, 6-(3-Methoxyphenyl)-N-(2-methyl-2-morpholin-4-ylpropyl)nicotinamide], the IC50 is 211 nM.

Regarding `COc1cccc(-c2ccc(C(=O)NCc3ccc(SC)cc3)cn2)c1` [Example 280, 6-(3-Methoxyphenyl)-N-[4-(methylthio)benzyl]nicotinamide], the IC50 amounted to 62.4 nM.

Turning to `COc1cccc(-c2ccc(C(=O)NCc3ccc(Cl)cc3)cn2)c1` [Example 281, N-(4-Chlorobenzyl)-6-(3-methoxyphenyl)nicotinamide], the IC50 was found to be 561 nM.

For `COc1cccc(-c2ccc(C(=O)NCC(C)(C)OC)cn2)c1` [Example 282, N-(2-Methoxy-2-methylpropyl)-6-(3-methoxyphenyl)nicotinamide], the IC50 came to 959 nM.

For `COC(=O)CNC(=O)c1ccc(-c2cccc(OC)c2)nc1` [Example 283, Methyl N-{[6-(3-methoxyphenyl)pyridin-3-yl]carbonyl}glycinate], the IC50 came out at 826 nM.

For the molecule `COc1cccc(-c2ccc(C(=O)NCC3CCCCO3)cn2)c1` (stereo not drawn) [Example 284, 6-(3-Methoxyphenyl)-N-(tetrahydro-2H-pyran-2-ylmethyl)nicotinamide], the IC50 was 519 nM.

For `COc1cccc(-c2ccc(C(=O)NCCN(C)C)cn2)c1` [Example 285, N-[2-(Dimethylamino)ethyl]-6-(3-methoxyphenyl) nicotinamide], the IC50 was no less than 1000 nM.

As for `COc1cccc(-c2ccc(C(=O)NCc3ccc(C(F)(F)F)cc3)cn2)c1` [Example 286, 6-(3-Methoxyphenyl)-N-[4-(trifluoromethyl)benzyl] nicotinamide], the IC50 was found to be 536 nM.

In the case of `COc1cccc(-c2ccc(C(=O)NC(=O)[C@@H](N)C(C)C)cn2)c1` [Example 287, 6-(3-Methoxyphenyl)-N-L-valylnicotinamide], the half-inhibitory concentration (IC50) turned out to be 816 nM.

In the case of `COc1cccc(-c2ccc(C(=O)NCc3ccco3)cn2)c1` [Example 288, N-(2-Furylmethyl)-6-(3-methoxyphenyl)nicotinamide], the IC50 turned out to be 333 nM.

With `CCCCNC(=O)c1ccc(-c2cccc(OC)c2)nc1` [Example 289, N-Butyl-6-(3-methoxyphenyl)nicotinamide], the IC50 stood at 466 nM.

As usually defined, the IC50 is the concentration at which inhibition is half-maximal.

These data come from patent US20110306597A1, “Nicotinamide Derivatives” (priority 2008, published 2011).
